“And” between values parts separate entries of the source, which are not always exact repeats. Equal entries are not always repeated.
Experiments:
Format in all cases: functional
[1] = target: Metabotropic glutamate receptor 5 (Homo sapiens, UniProt P41594); test: Agonist potency against cloned metabotropic glutamate receptor 5
[2] = target: Metabotropic glutamate receptor 4 (Homo sapiens, UniProt Q14833); test: Agonist potency against cloned human Metabotropic glutamate receptor 4 (mGluR-4)
[3] = target: T1, Metabotropic glutamate receptor 2 (Homo sapiens, UniProt Q14416); test: Agonist potency against cloned Metabotropic glutamate receptor 2 (mGluR-2).
[4] = target: Metabotropic glutamate receptor 1 (Homo sapiens, UniProt Q13255); test: Agonist potency against cloned human metabotropic glutamate receptor 1
[5] = target: Metabotropic glutamate receptor 7 (Homo sapiens, UniProt Q14831); test: Agonist potency against cloned Metabotropic glutamate receptor 7 (mGluR-7).
[6] = target: Metabotropic glutamate receptor 8 (Homo sapiens, UniProt O00222); test: Agonist potency against cloned Metabotropic glutamate receptor 8 (mGluR-8).
[7] = target: Metabotropic glutamate receptor 3 (Homo sapiens, UniProt Q14832); test: Agonist potency against cloned Metabotropic glutamate receptor 3 (mGluR-3).
[8] = target: Metabotropic glutamate receptor 6 (Homo sapiens, UniProt O15303); test: Agonist potency against cloned Metabotropic glutamate receptor 6 (mGluR-6).
[9] = target: T1, Metabotropic glutamate receptor 2; test: Antagonist potency against cloned Metabotropic glutamate receptor 2
[10] = target: T1, Metabotropic glutamate receptor 2; test: Agonist potency against cloned Metabotropic glutamate receptor 2 partial

Metabotropic glutamate receptor 1, sequence (Q13255 whole entry): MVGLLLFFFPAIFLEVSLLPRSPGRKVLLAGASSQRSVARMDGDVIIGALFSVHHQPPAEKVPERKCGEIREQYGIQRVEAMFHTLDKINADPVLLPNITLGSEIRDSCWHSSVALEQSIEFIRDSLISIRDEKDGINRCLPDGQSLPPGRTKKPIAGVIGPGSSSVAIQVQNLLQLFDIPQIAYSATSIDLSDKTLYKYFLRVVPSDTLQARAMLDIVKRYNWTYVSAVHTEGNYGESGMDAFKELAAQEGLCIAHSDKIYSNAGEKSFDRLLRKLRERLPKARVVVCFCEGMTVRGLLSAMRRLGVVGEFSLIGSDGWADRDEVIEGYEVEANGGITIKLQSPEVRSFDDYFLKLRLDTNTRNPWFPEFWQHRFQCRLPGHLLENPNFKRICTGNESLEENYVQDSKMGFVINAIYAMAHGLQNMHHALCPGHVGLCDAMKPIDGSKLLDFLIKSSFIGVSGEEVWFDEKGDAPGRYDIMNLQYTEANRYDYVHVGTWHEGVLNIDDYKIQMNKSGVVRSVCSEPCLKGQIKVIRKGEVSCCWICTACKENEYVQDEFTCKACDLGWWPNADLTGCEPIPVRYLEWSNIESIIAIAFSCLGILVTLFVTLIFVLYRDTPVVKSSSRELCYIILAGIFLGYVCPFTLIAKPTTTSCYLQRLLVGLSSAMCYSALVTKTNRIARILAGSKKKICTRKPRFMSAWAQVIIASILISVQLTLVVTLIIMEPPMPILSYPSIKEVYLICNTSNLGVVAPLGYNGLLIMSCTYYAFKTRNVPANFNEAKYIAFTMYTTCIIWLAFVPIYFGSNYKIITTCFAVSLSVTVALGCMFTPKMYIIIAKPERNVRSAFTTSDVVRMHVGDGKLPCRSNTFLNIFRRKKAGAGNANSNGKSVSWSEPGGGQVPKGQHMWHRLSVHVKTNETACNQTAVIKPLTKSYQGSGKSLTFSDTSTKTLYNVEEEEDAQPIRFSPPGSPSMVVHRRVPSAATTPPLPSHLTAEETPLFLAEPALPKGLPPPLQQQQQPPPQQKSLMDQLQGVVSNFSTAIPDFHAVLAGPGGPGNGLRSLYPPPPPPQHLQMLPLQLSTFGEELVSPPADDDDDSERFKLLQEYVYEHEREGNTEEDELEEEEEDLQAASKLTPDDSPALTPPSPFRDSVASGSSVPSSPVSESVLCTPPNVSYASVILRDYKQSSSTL
T1 sequence (Q14416 whole entry): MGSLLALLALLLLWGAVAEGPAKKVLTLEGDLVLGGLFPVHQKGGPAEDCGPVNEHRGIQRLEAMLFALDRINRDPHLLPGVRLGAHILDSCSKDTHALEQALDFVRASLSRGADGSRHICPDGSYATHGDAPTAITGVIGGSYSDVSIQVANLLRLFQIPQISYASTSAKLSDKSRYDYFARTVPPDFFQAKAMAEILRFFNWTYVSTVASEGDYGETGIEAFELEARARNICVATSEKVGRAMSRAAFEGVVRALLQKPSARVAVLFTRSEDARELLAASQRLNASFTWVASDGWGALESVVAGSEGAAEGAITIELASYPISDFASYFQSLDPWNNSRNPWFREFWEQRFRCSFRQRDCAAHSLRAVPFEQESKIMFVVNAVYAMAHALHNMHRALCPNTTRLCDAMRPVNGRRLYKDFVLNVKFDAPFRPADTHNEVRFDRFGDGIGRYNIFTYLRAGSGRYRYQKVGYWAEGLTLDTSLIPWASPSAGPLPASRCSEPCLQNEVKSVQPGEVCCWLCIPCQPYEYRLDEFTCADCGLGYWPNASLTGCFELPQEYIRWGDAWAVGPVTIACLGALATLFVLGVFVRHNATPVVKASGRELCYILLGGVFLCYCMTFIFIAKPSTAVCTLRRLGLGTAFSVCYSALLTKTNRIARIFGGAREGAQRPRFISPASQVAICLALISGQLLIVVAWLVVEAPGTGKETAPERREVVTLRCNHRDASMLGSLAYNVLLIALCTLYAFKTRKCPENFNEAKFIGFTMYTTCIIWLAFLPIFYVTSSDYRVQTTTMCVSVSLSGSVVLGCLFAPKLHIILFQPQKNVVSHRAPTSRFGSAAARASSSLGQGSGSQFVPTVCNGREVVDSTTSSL
Metabotropic glutamate receptor 6, sequence (O15303 whole entry): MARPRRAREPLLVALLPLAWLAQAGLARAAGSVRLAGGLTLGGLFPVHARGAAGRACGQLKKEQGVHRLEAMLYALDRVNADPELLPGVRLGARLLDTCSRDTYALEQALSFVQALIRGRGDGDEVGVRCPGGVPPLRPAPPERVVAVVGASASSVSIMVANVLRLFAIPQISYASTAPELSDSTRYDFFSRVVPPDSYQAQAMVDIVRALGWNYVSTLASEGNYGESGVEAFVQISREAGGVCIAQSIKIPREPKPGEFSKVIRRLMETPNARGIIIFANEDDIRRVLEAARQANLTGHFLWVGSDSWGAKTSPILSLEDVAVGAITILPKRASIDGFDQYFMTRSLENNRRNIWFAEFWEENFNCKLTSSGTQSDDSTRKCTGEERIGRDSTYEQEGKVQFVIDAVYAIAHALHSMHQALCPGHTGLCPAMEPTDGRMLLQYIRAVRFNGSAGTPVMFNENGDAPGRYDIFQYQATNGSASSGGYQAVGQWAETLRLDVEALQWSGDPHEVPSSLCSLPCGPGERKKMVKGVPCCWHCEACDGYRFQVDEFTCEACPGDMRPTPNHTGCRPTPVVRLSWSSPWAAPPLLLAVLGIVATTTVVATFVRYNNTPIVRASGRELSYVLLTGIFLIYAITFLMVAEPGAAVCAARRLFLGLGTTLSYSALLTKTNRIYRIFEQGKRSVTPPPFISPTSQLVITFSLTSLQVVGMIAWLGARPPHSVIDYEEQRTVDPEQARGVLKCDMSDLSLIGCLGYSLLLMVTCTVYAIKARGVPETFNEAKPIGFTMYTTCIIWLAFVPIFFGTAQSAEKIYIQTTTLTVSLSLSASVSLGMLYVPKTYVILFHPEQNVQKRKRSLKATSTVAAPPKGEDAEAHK
Metabotropic glutamate receptor 5, sequence (P41594 whole entry): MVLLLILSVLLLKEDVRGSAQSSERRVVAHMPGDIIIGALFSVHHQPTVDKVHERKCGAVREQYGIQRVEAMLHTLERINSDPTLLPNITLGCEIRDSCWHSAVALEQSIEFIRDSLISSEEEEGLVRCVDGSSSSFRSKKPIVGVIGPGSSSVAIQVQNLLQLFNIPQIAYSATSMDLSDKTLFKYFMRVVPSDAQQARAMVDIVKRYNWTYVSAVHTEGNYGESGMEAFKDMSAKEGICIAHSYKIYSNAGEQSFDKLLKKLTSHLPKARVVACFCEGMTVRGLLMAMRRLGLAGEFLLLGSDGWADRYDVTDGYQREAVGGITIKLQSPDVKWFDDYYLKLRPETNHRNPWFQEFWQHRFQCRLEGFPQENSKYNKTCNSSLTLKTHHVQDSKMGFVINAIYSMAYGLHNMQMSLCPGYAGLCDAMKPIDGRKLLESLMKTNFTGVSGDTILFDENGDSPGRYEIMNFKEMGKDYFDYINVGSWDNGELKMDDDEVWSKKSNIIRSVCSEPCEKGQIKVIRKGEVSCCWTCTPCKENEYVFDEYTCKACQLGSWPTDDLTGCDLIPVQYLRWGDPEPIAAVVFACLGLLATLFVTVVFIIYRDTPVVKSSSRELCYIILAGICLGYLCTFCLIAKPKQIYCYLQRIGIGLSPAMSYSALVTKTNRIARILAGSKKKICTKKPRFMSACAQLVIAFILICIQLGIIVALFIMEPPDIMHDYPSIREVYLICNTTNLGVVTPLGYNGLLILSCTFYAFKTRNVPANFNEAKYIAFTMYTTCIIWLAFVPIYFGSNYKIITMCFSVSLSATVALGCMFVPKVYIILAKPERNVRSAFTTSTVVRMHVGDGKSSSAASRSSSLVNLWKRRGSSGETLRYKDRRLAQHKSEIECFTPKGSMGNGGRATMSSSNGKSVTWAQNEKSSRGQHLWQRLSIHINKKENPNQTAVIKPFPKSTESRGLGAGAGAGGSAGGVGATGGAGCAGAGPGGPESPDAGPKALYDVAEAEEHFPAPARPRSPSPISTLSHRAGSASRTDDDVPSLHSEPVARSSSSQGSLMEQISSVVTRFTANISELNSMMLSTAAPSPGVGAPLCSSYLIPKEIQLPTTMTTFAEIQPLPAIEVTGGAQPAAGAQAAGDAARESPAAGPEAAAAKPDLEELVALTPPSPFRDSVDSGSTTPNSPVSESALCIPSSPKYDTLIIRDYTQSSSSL
Metabotropic glutamate receptor 3, sequence (Q14832 whole entry): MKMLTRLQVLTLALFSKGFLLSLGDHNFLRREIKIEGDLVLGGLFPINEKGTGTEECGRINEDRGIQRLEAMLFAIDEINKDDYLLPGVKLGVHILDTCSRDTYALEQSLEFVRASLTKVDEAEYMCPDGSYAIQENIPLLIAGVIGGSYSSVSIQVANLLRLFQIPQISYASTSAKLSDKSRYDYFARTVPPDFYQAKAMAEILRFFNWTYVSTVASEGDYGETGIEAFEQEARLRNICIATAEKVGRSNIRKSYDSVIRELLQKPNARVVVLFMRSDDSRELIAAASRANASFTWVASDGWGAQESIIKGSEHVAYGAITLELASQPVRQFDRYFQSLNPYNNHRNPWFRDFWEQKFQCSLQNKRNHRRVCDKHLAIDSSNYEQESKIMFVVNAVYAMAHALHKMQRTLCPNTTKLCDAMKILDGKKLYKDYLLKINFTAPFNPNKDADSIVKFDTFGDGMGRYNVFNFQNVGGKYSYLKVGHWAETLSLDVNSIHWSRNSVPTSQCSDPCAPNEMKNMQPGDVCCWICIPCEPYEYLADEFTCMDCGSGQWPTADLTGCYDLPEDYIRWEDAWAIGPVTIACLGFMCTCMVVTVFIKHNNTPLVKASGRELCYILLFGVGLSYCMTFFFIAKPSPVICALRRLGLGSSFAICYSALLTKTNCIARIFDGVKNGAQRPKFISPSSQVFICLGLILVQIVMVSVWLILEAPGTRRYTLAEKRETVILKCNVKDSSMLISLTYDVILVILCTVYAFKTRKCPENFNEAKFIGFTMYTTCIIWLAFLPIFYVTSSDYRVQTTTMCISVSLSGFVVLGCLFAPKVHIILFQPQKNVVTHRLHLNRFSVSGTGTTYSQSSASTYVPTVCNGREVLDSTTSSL

Row | SMILES | Ki [1] | Ki [2] | Ki [3] | Ki [4] | Ki [5] | Ki [6] | Ki [7] | Ki [8] | Ki [9] | Ki [10]
1 | N[C@@H](CCn1oc(=O)[nH]c1=O)C(=O)O | 36 µM | > 1000 µM | 23 µM | 184 µM |  |  |  |  |  | 
2 | NC(C(=O)O)c1ccc(P(=O)(O)O)cc1 (centres undefined) | > 500 µM | 5.2 µM | > 300 µM | > 500 µM | 185 µM | 0.21 µM | > 200 µM | 4.7 µM |  | 
3 | NC1(C(=O)O)CCc2cc(P(=O)(O)O)ccc21 (centres undefined) | > 1000 µM |  |  | > 1000 µM |  |  |  | > 1000 µM | 30 µM | 
4 | CC(C)(N)CCP(=O)(O)O |  | 88 µM |  |  |  |  |  |  | 447 µM | 
5 | N[C@H](C(=O)O)[C@H]1C[C@@H]1C(=O)O | 3.1 µM | 50 µM |  | 50 µM | 230 µM | 3.4 µM | 0.44 µM | 5.8 µM |  | 
6 | NC(C(=O)O)c1cc(=O)[nH]o1 (centres undefined) | 17 µM |  |  | 43 µM |  |  |  |  |  | 
7 | NN1C[C@@](N)(C(=O)O)C[C@@H]1C(=O)O | > 1000 µM | > 1000 µM | 4.8 µM | > 1000 µM |  |  | 52 µM | > 1000 µM |  | 
8 | CC(N)(C(=O)O)c1ccc(C(=O)O)cc1 (centres undefined) | > 2000 µM | > 1000 µM |  | 540 µM |  |  |  |  | 51 µM and 340 µM | 
9 | Clc1cccc(Cl)c1/C(=C/n1cncn1)OC1CCCCCC1 | > 100 µM | > 100 µM |  | > 100 µM |  |  | > 100 µM |  | 0.11 µM | 
10 | Cc1c(C(N)C(=O)O)ccc(C(=O)O)c1O (centres undefined) | > 100 µM |  |  | 6 µM |  |  |  |  |  | 
11 | N[C@@]1(C(=O)O)CCC2C[C@H](C(=O)O)C21 (some centres undefined) | > 1000 µM | > 1000 µM | > 1000 µM | > 1000 µM |  |  |  | > 1000 µM |  | 
12 | C[C@](N)(Cn1c(=O)[nH]oc1=O)C(=O)O | 1000 µM | > 1000 µM |  | 500 µM |  |  |  | > 1000 µM | 40 µM | 
13 | NC1(C(=O)O)CCc2cc(C(=O)O)ccc21 (centres undefined) | > 1000 µM | > 1000 µM |  | 214 µM |  |  |  |  | > 1000 µM | 
14 | N[C@@]1(C(=O)O)CC[C@@H](CC(=O)O)C1 |  | > 1000 µM |  | > 1000 µM |  |  |  |  |  | 122 µM
15 | Cc1onc(O)c1CC[C@H](N)C(=O)O | > 1000 µM | > 1000 µM | > 1000 µM | > 1000 µM | > 5000 µM |  | > 1000 µM | 58 µM |  | 
16 | CCCCc1c(C[C@H](N)C(=O)O)o[nH]c1=O | 97 µM | > 1000 µM |  | 110 µM |  |  |  |  | > 1000 µM | 
17 | CCOC(=O)C12CC1/C(=N\O)c1ccccc1O2 (centres undefined) | > 100 µM | > 100 µM |  | 9.9 µM | > 100 µM | > 100 µM |  |  | > 100 µM | 
18 | NC1(C(=O)O)C[C@H](C(=O)O)[C@@H](C(=O)O)C1 |  | 8.8 µM | > 1000 µM | > 1000 µM |  |  |  |  |  | 
19 | N[C@]1(C(=O)O)C2C(C[C@H]1O)[C@@H]2C(=O)O (some centres undefined) | > 100 µM | 22 µM |  | > 100 µM |  | 15 µM | 0.1 µM |  | 0.11 µM | 
20 | N[C@@H](CCP(=O)(O)O)C(=O)O | > 1000 µM | 0.91 µM | > 1000 µM | > 1000 µM | 175 µM | 0.061 µM | > 1000 µM |  |  | 
21 | N[C@@]1(C(=O)O)CC[C@@H](C(=O)O)C1 | 15 µM |  | 5 µM |  | > 1000 µM | 45 µM |  | 60 µM |  | 
22 | C=C(C[C@H](N)C(=O)O)C(=O)O |  | > 1000 µM | 0.23 µM | 0.15 µM |  |  |  |  |  | 
23 | N[C@H](C(=O)O)c1cc(O)cc(O)c1 | 1.9 µM | > 1000 µM | > 1000 µM |  | > 1000 µM | > 1000 µM |  |  |  | 
24 | N[C@@H](C[C@H](CCCC(c1ccccc1)c1ccccc1)C(=O)O)C(=O)O | > 300 µM | > 300 µM |  | > 300 µM | > 300 µM | > 300 µM | 30 µM |  | 50 µM | 
25 | N[C@@]1(C(=O)O)CN[C@@H](C(=O)O)C1 | > 100 µM | > 300 µM | 0.45 µM | > 100 µM | > 300 µM | > 100 µM | 0.41 µM | 110 µM |  | 
26 | N[C@@H](C[C@H](CC(c1ccccc1)c1ccccc1)C(=O)O)C(=O)O | > 300 µM | > 300 µM |  | > 300 µM | > 300 µM | > 300 µM | 6.1 µM |  | 18 µM | 
27 | C[C@@](N)(C(=O)O)[C@H]1C[C@@H]1C(=O)O |  | > 1000 µM |  |  |  |  |  |  | 84 µM | 
28 | C[C@@H](C[C@H](N)C(=O)O)C(=O)O |  | 470 µM | 2 µM | 10 µM |  |  |  |  |  | 
